{"source": "ChEMBL document CHEMBL5523679", "about": "“Discovery of 1,2,3-triazole incorporated indole-piperazines as potent antitubercular agents: Design, synthesis, in vitro biological evaluation, molecular docking and ADME studies” (Bioorg Med Chem, 2024)", "key": {"[1]": {"tested_on": "Mycobacterium tuberculosis", "experiment": "Antimycobacterial activity against Mycobacterium tuberculosis H37Rv assessed as bacterial growth inhibition by microplate Alamar blue assay", "format": "functional"}, "Escherichia coli [2]": {"tested_on": "Escherichia coli", "experiment": "Antibacterial activity against Escherichia coli assessed as inhibition zone at 75 ug/ml by diffusion method", "format": "functional", "conditions": "read-out: IZ"}, "Escherichia coli [3]": {"tested_on": "Escherichia coli", "experiment": "Antibacterial activity against Escherichia coli assessed as inhibition zone at 50 ug/ml by diffusion method", "format": "functional", "conditions": "read-out: IZ"}, "Staphylococcus aureus [4]": {"tested_on": "Staphylococcus aureus", "experiment": "Antibacterial activity against Staphylococcus aureus assessed as inhibition zone at 75 ug/ml by diffusion method", "format": "functional", "conditions": "read-out: IZ"}, "Staphylococcus aureus [5]": {"tested_on": "Staphylococcus aureus", "experiment": "Antibacterial activity against Staphylococcus aureus assessed as inhibition zone at 50 ug/ml by diffusion method", "format": "functional", "conditions": "read-out: IZ"}, "Staphylococcus aureus [6]": {"tested_on": "Staphylococcus aureus", "experiment": "Antibacterial activity against Staphylococcus aureus assessed as inhibition zone at 25 ug/ml by diffusion method", "format": "functional", "conditions": "read-out: IZ"}, "Pseudomonas aeruginosa [7]": {"tested_on": "Pseudomonas aeruginosa", "experiment": "Antibacterial activity against Pseudomonas aeruginosa assessed as inhibition zone at 75 ug/ml by diffusion method", "format": "functional", "conditions": "read-out: IZ"}, "Pseudomonas aeruginosa [8]": {"tested_on": "Pseudomonas aeruginosa", "experiment": "Antibacterial activity against Pseudomonas aeruginosa assessed as inhibition zone at 50 ug/ml by diffusion method", "format": "functional", "conditions": "read-out: IZ"}, "Pseudomonas aeruginosa [9]": {"tested_on": "Pseudomonas aeruginosa", "experiment": "Antibacterial activity against Pseudomonas aeruginosa assessed as inhibition zone at 25 ug/ml by diffusion method", "format": "functional", "conditions": "read-out: IZ"}, "[10]": {"experiment": "Cytotoxicity against African green monkey Vero cells measured after 72 hrs by MTT assay", "format": "toxicity, cell-based", "conditions": "chlorocebus sabaeus"}, "[11]": {"experiment": "Selectivity index, ratio of CC50 for African green monkey Vero cells to MIC for Mycobacterium tuberculosis H37Rv", "format": "toxicity", "conditions": "read-out: Selectivity Index"}, "[12]": {"experiment": "Cytotoxicity against African green monkey Vero cells assessed as inhibition of cell growth at 6.25 ug/ml measured after 72 hrs by MTT assay relative to control", "format": "toxicity, cell-based", "conditions": "chlorocebus sabaeus, at 6.25 µg/mL"}, "Escherichia coli [13]": {"tested_on": "Escherichia coli", "experiment": "Antibacterial activity against Escherichia coli assessed as inhibition zone at 25 ug/ml by diffusion method", "format": "functional", "conditions": "read-out: IZ"}}}
{"smiles": "O=C(CCc1cn(Cc2cn(Cc3ccc(F)cc3)nn2)c2ccccc12)N1CCN(C(=O)c2ccncc2F)CC1", "values": [{"measurement": "MIC", "setting": "[1]", "value": 5.5, "unit": "µM"}, {"measurement": "zone of inhibition at 75 µg/mL", "setting": "Escherichia coli [2]", "value": 20, "unit": "mm"}, {"measurement": "zone of inhibition at 50 µg/mL", "setting": "Escherichia coli [3]", "value": 15, "unit": "mm"}, {"measurement": "zone of inhibition at 75 µg/mL", "setting": "Staphylococcus aureus [4]", "value": 18, "unit": "mm"}, {"measurement": "zone of inhibition at 50 µg/mL", "setting": "Staphylococcus aureus [5]", "value": 15, "unit": "mm"}, {"measurement": "zone of inhibition at 25 µg/mL", "setting": "Staphylococcus aureus [6]", "value": 10, "unit": "mm"}, {"measurement": "zone of inhibition at 75 µg/mL", "setting": "Pseudomonas aeruginosa [7]", "value": 18, "unit": "mm"}, {"measurement": "zone of inhibition at 50 µg/mL", "setting": "Pseudomonas aeruginosa [8]", "value": 15, "unit": "mm"}, {"measurement": "zone of inhibition at 25 µg/mL", "setting": "Pseudomonas aeruginosa [9]", "value": 10, "unit": "mm"}, {"measurement": "CC50 at 72 h", "setting": "[10]", "value": 882, "unit": "µg/mL"}, {"measurement": "selectivity ratio", "setting": "[11]", "value": 283}, {"measurement": "inhibition at 72 h, 6.25 ug/ml", "setting": "[12]", "value": 8.5, "unit": "%"}]}
{"smiles": "COc1ccc(C(=O)N2CCN(C(=O)CCc3cn(Cc4cn(Cc5ccc(F)cc5)nn4)c4ccccc34)CC2)cc1", "values": [{"measurement": "MIC", "setting": "[1]", "value": 2.7, "unit": "µM"}, {"measurement": "zone of inhibition at 75 µg/mL", "setting": "Escherichia coli [2]", "value": 25, "unit": "mm"}, {"measurement": "zone of inhibition at 50 µg/mL", "setting": "Escherichia coli [3]", "value": 23, "unit": "mm"}, {"measurement": "zone of inhibition at 25 µg/mL", "setting": "Escherichia coli [13]", "value": 15, "unit": "mm"}, {"measurement": "zone of inhibition at 75 µg/mL", "setting": "Staphylococcus aureus [4]", "value": 20, "unit": "mm"}, {"measurement": "zone of inhibition at 50 µg/mL", "setting": "Staphylococcus aureus [5]", "value": 18, "unit": "mm"}, {"measurement": "zone of inhibition at 25 µg/mL", "setting": "Staphylococcus aureus [6]", "value": 12, "unit": "mm"}, {"measurement": "zone of inhibition at 75 µg/mL", "setting": "Pseudomonas aeruginosa [7]", "value": 18, "unit": "mm"}, {"measurement": "zone of inhibition at 50 µg/mL", "setting": "Pseudomonas aeruginosa [8]", "value": 13, "unit": "mm"}, {"measurement": "zone of inhibition at 25 µg/mL", "setting": "Pseudomonas aeruginosa [9]", "value": 9, "unit": "mm"}, {"measurement": "CC50 at 72 h", "setting": "[10]", "value": 1470, "unit": "µg/mL"}, {"measurement": "selectivity ratio", "setting": "[11]", "value": 916}, {"measurement": "inhibition at 72 h, 6.25 ug/ml", "setting": "[12]", "value": 8.8, "unit": "%"}]}
{"smiles": "O=C(CCc1cn(Cc2cn(Cc3ccc(F)cc3)nn2)c2ccccc12)N1CCN(S(=O)(=O)c2ccccc2)CC1", "values": [{"measurement": "MIC", "setting": "[1]", "value": 10.6, "unit": "µM"}, {"measurement": "zone of inhibition at 75 µg/mL", "setting": "Escherichia coli [2]", "value": 20, "unit": "mm"}, {"measurement": "zone of inhibition at 50 µg/mL", "setting": "Escherichia coli [3]", "value": 15, "unit": "mm"}, {"measurement": "zone of inhibition at 25 µg/mL", "setting": "Escherichia coli [13]", "value": 13, "unit": "mm"}, {"measurement": "zone of inhibition at 75 µg/mL", "setting": "Staphylococcus aureus [4]", "value": 20, "unit": "mm"}, {"measurement": "zone of inhibition at 50 µg/mL", "setting": "Staphylococcus aureus [5]", "value": 15, "unit": "mm"}, {"measurement": "zone of inhibition at 25 µg/mL", "setting": "Staphylococcus aureus [6]", "value": 9, "unit": "mm"}, {"measurement": "zone of inhibition at 75 µg/mL", "setting": "Pseudomonas aeruginosa [7]", "value": 15, "unit": "mm"}, {"measurement": "zone of inhibition at 50 µg/mL", "setting": "Pseudomonas aeruginosa [8]", "value": 13, "unit": "mm"}, {"measurement": "zone of inhibition at 25 µg/mL", "setting": "Pseudomonas aeruginosa [9]", "value": 10, "unit": "mm"}, {"measurement": "CC50 at 72 h", "setting": "[10]", "value": 1540, "unit": "µg/mL"}, {"measurement": "selectivity ratio", "setting": "[11]", "value": 247}, {"measurement": "inhibition at 72 h, 6.25 ug/ml", "setting": "[12]", "value": 11.1, "unit": "%"}]}
{"smiles": "O=C(CCc1cn(Cc2cn(Cc3ccc(F)cc3)nn2)c2ccccc12)N1CCN(C(=O)c2ccccc2C(F)(F)F)CC1", "values": [{"measurement": "MIC", "setting": "[1]", "value": 5, "unit": "µM"}, {"measurement": "zone of inhibition at 75 µg/mL", "setting": "Escherichia coli [2]", "value": 25, "unit": "mm"}, {"measurement": "zone of inhibition at 50 µg/mL", "setting": "Escherichia coli [3]", "value": 23, "unit": "mm"}, {"measurement": "zone of inhibition at 25 µg/mL", "setting": "Escherichia coli [13]", "value": 15, "unit": "mm"}, {"measurement": "zone of inhibition at 75 µg/mL", "setting": "Staphylococcus aureus [4]", "value": 20, "unit": "mm"}, {"measurement": "zone of inhibition at 50 µg/mL", "setting": "Staphylococcus aureus [5]", "value": 13, "unit": "mm"}, {"measurement": "zone of inhibition at 75 µg/mL", "setting": "Pseudomonas aeruginosa [7]", "value": 18, "unit": "mm"}, {"measurement": "zone of inhibition at 50 µg/mL", "setting": "Pseudomonas aeruginosa [8]", "value": 15, "unit": "mm"}, {"measurement": "zone of inhibition at 25 µg/mL", "setting": "Pseudomonas aeruginosa [9]", "value": 10, "unit": "mm"}, {"measurement": "CC50 at 72 h", "setting": "[10]", "value": 837, "unit": "µg/mL"}, {"measurement": "selectivity ratio", "setting": "[11]", "value": 268}, {"measurement": "inhibition at 72 h, 6.25 ug/ml", "setting": "[12]", "value": 5.4, "unit": "%"}]}
